From ChEMBL document CHEMBL6178019, “Discovery of CYP1A1 Inhibitors for Host-Directed Therapy against Sepsis” (J Med Chem, 2025) come the findings set out here.

Data set [1] concerns RAW264.7. Nature of the data set: Induction of phagocytosis in zymosan A stimulated mouse RAW264.7 cells assessed as upregulation of SR-A1 mRNA expression at 5.0 uM incubated for 12 hrs by qRT-PCR analysis. The format is functional, cell-based. Background: Real-time PCR tracks product formation cycle by cycle.
For data set [2], the target named is T1, CYP1A1 (Homo sapiens, UniProt P04798).
T1 sequence (P04798 whole entry): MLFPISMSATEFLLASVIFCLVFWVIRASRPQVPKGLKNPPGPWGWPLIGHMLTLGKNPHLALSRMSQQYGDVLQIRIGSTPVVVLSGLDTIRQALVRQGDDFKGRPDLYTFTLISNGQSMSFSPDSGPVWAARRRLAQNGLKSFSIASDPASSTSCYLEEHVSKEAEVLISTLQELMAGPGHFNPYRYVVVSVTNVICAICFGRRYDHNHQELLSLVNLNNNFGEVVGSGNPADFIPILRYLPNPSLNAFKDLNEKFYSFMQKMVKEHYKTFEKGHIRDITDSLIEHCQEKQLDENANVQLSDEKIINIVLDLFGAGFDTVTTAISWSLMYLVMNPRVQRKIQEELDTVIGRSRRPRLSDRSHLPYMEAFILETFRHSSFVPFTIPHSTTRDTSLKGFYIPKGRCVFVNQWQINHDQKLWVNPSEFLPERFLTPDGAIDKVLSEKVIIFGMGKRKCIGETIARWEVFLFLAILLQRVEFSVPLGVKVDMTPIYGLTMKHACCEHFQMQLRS
The experiment in a line: Inhibition of CYP1A1 in human Caco-2 cells at 500 nM incubated for 12 hrs by EROD assay relative to control. In kind it is cell-based.

Data set [3] addresses T2, CYP1A1 (Mus musculus, UniProt P00184).
T2 sequence (P00184 whole entry): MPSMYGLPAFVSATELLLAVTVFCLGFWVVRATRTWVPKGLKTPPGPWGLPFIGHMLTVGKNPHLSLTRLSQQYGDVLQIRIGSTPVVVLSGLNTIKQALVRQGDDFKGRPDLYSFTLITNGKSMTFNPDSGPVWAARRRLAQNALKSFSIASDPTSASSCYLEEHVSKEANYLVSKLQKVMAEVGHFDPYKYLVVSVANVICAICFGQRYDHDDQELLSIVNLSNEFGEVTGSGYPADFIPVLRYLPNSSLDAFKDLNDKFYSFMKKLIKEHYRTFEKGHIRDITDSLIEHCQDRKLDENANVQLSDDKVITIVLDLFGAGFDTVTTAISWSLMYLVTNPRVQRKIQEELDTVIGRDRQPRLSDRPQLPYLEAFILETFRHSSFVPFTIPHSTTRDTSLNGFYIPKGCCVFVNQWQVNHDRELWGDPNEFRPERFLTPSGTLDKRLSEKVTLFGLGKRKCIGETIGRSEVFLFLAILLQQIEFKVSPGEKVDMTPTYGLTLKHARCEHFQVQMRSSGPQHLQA
The experiment in a line: Inhibition of CYP1A1 in mouse RAW264.7 cells at 500 nM incubated for 12 hrs by EROD assay relative to control. The format is cell-based.

Activity calls are given as the source filed them. The rule behind the calls is not given here. Some results are limits rather than exact numbers.

Turning to `Cn1cc(/C=C/C(=O)c2ccc3c(c2)n(C)c(=O)n3C)c2ccccc21`, in data set [1], the result was Active.
Regarding `C#Cc1ccccc1/C=C/C(=O)c1ccc2c(c1)n(C)c(=O)n2C`, the result in data set [1] was Active. In addition, the inhibition at 12 h, 0.5 µM in data set [2] and in data set [3] was less than 10% throughout.
